Results on three compounds are retold here after patent publication US11053204B2, “Pyrimidinyloxy benzene derivatives as herbicides” (FMC Corporation, priority 2015, dated 2021).

Holding throughout (type): in vivo
The subject of test [1] is Italian ryegrass (Lolium multiflorum). The test is described as follows: Test A postemergence, visual injury rating. Particulars: 0 is no effect, 100 is complete control. An outline of the steps:
(§1)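 Pre- and postemergence greenhouse screen. Soil: loam + sand. Spray carrier: solvent mixture, non-phytotoxic, with surfactant. Post timing at 1–2 leaves, height 2–10 cm. Readout: visual injury on a 0–100 scale roughly 10 days after application, untreated plants as reference.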

The test system of a further test is corn (Zea mays). The test is described as follows: Test A postemergence, visual injury rating. The note with it: 0 is no effect, 100 is complete control. In a few lines: as §1
For test [2], the system named is kochia (Kochia scoparia). The test is described as follows: Test A postemergence, visual injury rating. Particulars: 0 is no effect, 100 is complete control. In a few lines: as §1
Test [3] has as its system giant foxtail (Setaria faberii). The test can be described thus: Test A postemergence, visual injury rating. The note with it: 0 is no effect, 100 is complete control. An outline of the steps: as §1
Test [4] concerns wheat (Triticum aestivum). The test is described as follows: Test A postemergence, visual injury rating. The note with it: 0 is no effect, 100 is complete control. An outline of the steps: as §1
The subject of test [5] is pigweed (Amaranthus retroflexus). The test is described as follows: Test A postemergence, visual injury rating. The note with it: 0 is no effect, 100 is complete control. In a few lines:
as §1

Test [6] concerns ragweed (common ragweed, Ambrosia elatior). The test is described as follows: Test A postemergence, visual injury rating. The note with it: 0 is no effect, 100 is complete control. An outline of the steps:
as §1

Test [7] relates to velvetleaf (Abutilon theophrasti). The test can be described thus: Test C postemergence, plant response rating. Particulars: Abutilon theophrasti, post-emergence. An outline of the steps:
(§2)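 After sowing in loam–sand blend or silt loam, pots were sprayed preemergence; separately grown 1- to 4-leaf plants were sprayed postemergence. Following 13 to 15 d under greenhouse conditions, injury was rated visually on a 0 to 100 scale.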

Test [8] deals with kochia (Kochia scoparia). The test is described as follows: Test C postemergence, plant response rating. The note with it: Bassia scoparia, post-emergence. An outline of the steps: as §2
Test [9] deals with morningglory (Ipomoea coccinea). The test can be described thus: Test C postemergence, plant response rating. Particulars: Ipomoea, post-emergence. In a few lines:
as §2

Test [10] concerns barnyardgrass (Echinochloa crus-galli). The test is described as follows: Test C postemergence, plant response rating. The note with it: Echinochloa crus-galli, post-emergence. In a few lines:
as §2

For test [11], the system named is ragweed (common ragweed, Ambrosia elatior). The test can be described thus: Test C postemergence, plant response rating. The note with it: Ambrosia artemisiifolia, post-emergence. An outline of the steps: as §2
Test [12] has as its system oilseed rape (Brassica napus). The test can be described thus: Test C postemergence, plant response rating. The note with it: Brassica napus, post-emergence. An outline of the steps:
as §2

Test [13] has as its system ducksalad (Heteranthera limosa). The test is described as follows: Test B flooded paddy test, plant response rating. Particulars: 250 g ai/ha; Flood; scale of 0 to 100 where 0 is no effect and 100 is complete control; 13 to 15 days. In a few lines: (§3)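 Flooded 3 cm over soil; compound into paddy water; depth kept constant. Greenhouse 13–15 d.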
Test [14] has as its system sedge, umbrella (small-flower umbrella sedge, Cyperus difformis). The test is described as follows: Test B flooded paddy test, plant response rating. The note with it: 250 g ai/ha; Flood; scale of 0 to 100 where 0 is no effect and 100 is complete control; 13 to 15 days. An outline of the steps:
as §3

In test [15] the test system is barnyardgrass (Echinochloa crus-galli). The test is described as follows: Test B flooded paddy test, plant response rating. The note with it: 250 g ai/ha; Flood; scale of 0 to 100 where 0 is no effect and 100 is complete control; 13 to 15 days. In a few lines:
as §3

The subject of another test is rice (Oryza sativa). The test is described as follows: Test B flooded paddy test, plant response rating. The note with it: 250 g ai/ha; Flood; scale of 0 to 100 where 0 is no effect and 100 is complete control; 13 to 15 days. In a few lines: as §3
The mark [16] stands for this setting: 125 g ai/ha, scale 0 to 100 (0 no effect, 100 complete control).
Where [17] appears, read: 62 g ai/ha, scale 0 to 100 (0 no effect, 100 complete control).

The structures appear in SMILES notation.

With `CC(CC(F)(F)F)OC(=O)c1c(Br)cccc1Oc1ncc(Cl)cn1` (stereo not drawn) [Compound 16, 3,3,3-trifluoro-1-methylpropyl 2-bromo-6-[(5-chloro-2-pyrimidinyl)oxy]benzoate], the pest or weed control at 125 g/ha is 10% in test [1] (Lolium multiflorum, post-emergence, 240 h, 125 g ai/ha, read-out: Ryegrass, Italian plant response rating (0 to 100 scale)); 80% with kochia (Kochia scoparia) [2] (Bassia scoparia, post-emergence, 240 h, 125 g ai/ha, read-out: Kochia plant response rating (0 to 100 scale)); 20% in test [3] (Setaria faberi, post-emergence, 240 h, 125 g ai/ha, read-out: Foxtail, Giant plant response rating (0 to 100 scale)); 90% in test [5] (Amaranthus retroflexus, post-emergence, 240 h, 125 g ai/ha, read-out: Pigweed plant response rating (0 to 100 scale)); 10% in test [6] (Ambrosia artemisiifolia, post-emergence, 240 h, 125 g ai/ha, read-out: Ragweed plant response rating (0 to 100 scale)); 50% in [7] (setting [16]). Besides, the pest or weed control at 125 g/ha worked out at 90% in the test on kochia (Kochia scoparia) [8] (setting [16]), 75% in test [9] (setting [16]), 20% in [10] (setting [16]) and 40% in test [11] (setting [16]). Further, the pest or weed control at 500 g/ha in test [1] (Lolium multiflorum, post-emergence, 240 h, 500 g ai/ha, read-out: Ryegrass, Italian plant response rating (0 to 100 scale)) amounted to 30%; in the test on kochia (Kochia scoparia) [2] (Bassia scoparia, post-emergence, 240 h, 500 g ai/ha, read-out: Kochia plant response rating (0 to 100 scale)), 100%; in [3] (Setaria faberi, post-emergence, 240 h, 500 g ai/ha, read-out: Foxtail, Giant plant response rating (0 to 100 scale)) it was 90%; in [5] (Amaranthus retroflexus, post-emergence, 240 h, 500 g ai/ha, read-out: Pigweed plant response rating (0 to 100 scale)) it was 100%; in [6] (Ambrosia artemisiifolia, post-emergence, 240 h, 500 g ai/ha, read-out: Ragweed plant response rating (0 to 100 scale)), 30%. Besides, the plant injury at 125 g/ha in the test on corn (Zea mays) (Zea mays, post-emergence, 240 h, 125 g ai/ha, read-out: Corn plant response rating (0 to 100 scale)) is 20%; in test [4] (Triticum aestivum, post-emergence, 240 h, 125 g ai/ha, read-out: Wheat plant response rating (0 to 100 scale)) it was 20%; in [12] (setting [16]), 70%. Further, the plant injury at 500 g/ha in the test with corn (Zea mays) (Zea mays, post-emergence, 240 h, 500 g ai/ha, read-out: Corn plant response rating (0 to 100 scale)) is 60%; in test [4] (Triticum aestivum, post-emergence, 240 h, 500 g ai/ha, read-out: Wheat plant response rating (0 to 100 scale)) it was 20%. Also, the pest or weed control at 16 g/ha in test [7] (16 g ai/ha, scale 0 to 100) worked out at 20%; in the test with kochia (Kochia scoparia) [8] (16 g ai/ha, scale 0 to 100), 40%; in test [9] (16 g ai/ha, scale 0 to 100), 5%; in test [10] (16 g ai/ha, scale 0 to 100), 5%; in test [11] (16 g ai/ha, scale 0 to 100), 20%. Besides, the pest or weed control at 31 g/ha in [7] (31 g ai/ha, scale 0 to 100) was found to be 25%; in the test with kochia (Kochia scoparia) [8] (31 g ai/ha, scale 0 to 100), 50%; in test [9] (31 g ai/ha, scale 0 to 100) it was 30%; in [10] (31 g ai/ha, scale 0 to 100), 10%; in test [11] (31 g ai/ha, scale 0 to 100), 10%. Further, the pest or weed control at 62 g/ha came out at 30% in [7] (62 g ai/ha, scale 0 to 100 (0 no effect, 100 complete control), read-out: Velvetleaf plant response rating); 80% with kochia (Kochia scoparia) [8] (setting [17]); 40% in test [9] (setting [17]); 20% in test [10] (setting [17]); 10% in [11] (setting [17]). This compound returned a plant injury at 16 g/ha in test [12] (16 g ai/ha, scale 0 to 100) of 15%. The compound further came in with a plant injury at 31 g/ha in [12] (31 g ai/ha, scale 0 to 100) of 35%. In [12] (setting [17]), this compound returned a plant injury at 62 g/ha of 60%.

Consider `N#Cc1cccc(Oc2ncc(Cl)cn2)c1C(=O)OCCC(F)(F)F` [Compound 30], for which the “Ryegrass, Italian plant response rating (0 to 100 scale)” value in test [1] (125 g ai/ha) and in test [1] (500 g ai/ha) was 0 in each case. Moreover, the “Corn plant response rating (0 to 100 scale)” value in the test with corn (Zea mays) (125 g ai/ha) was 30; in the test on corn (Zea mays) (500 g ai/ha) it was 70. The “Kochia plant response rating (0 to 100 scale)” value in the test on kochia (Kochia scoparia) [2] (125 g ai/ha) and in the test on kochia (Kochia scoparia) [2] (500 g ai/ha) was 100 throughout. The “Foxtail, Giant plant response rating (0 to 100 scale)” value in test [3] (125 g ai/ha) stood at 60; in test [3] (500 g ai/ha) it was 100. Further, the “Wheat plant response rating (0 to 100 scale)” value worked out at 0 in test [4] (125 g ai/ha) and 30 in test [4] (500 g ai/ha). Also, the “Pigweed plant response rating (0 to 100 scale)” value in test [5] (125 g ai/ha) and in test [5] (500 g ai/ha) was 100 each time. Also, the “Ragweed plant response rating (0 to 100 scale)” value in test [6] (125 g ai/ha) and in test [6] (500 g ai/ha) was 0 throughout. In addition, the “Plant response rating, Ducksalad” value in test [13] worked out at 40. Besides, the “Plant response rating, Sedge, Umbrella” value in [14] was determined as 0. In addition, the “Plant response rating, Barnyardgrass” value in test [15] is 0. Also, the “Plant response rating, Rice” value in the test on rice (Oryza sativa) is 0.

For `C=C(Br)COC(=O)c1c(Br)cccc1Oc1ncc(Cl)cn1` [Compound 61], the “Ryegrass, Italian plant response rating (0 to 100 scale)” value in [1] (125 g ai/ha) stood at 20; in test [1] (500 g ai/ha) it was 80. The “Corn plant response rating (0 to 100 scale)” value with corn (Zea mays) (125 g ai/ha) is 20; in the test on corn (Zea mays) (500 g ai/ha), 40. The “Foxtail, Giant plant response rating (0 to 100 scale)” value in test [3] (125 g ai/ha) is on record as 60; in [3] (500 g ai/ha) it was 100. In addition, the “Wheat plant response rating (0 to 100 scale)” value turned out to be 0 in test [4] (125 g ai/ha) and 30 in [4] (500 g ai/ha). In addition, the “Pigweed plant response rating (0 to 100 scale)” value in test [5] (125 g ai/ha) stood at 40; in test [5] (500 g ai/ha) it was 100. For the same compound, the “Ragweed plant response rating (0 to 100 scale)” value in [6] (125 g ai/ha) worked out at 10; in [6] (500 g ai/ha), 30. Also, the “Plant response rating, Ducksalad” value in [13] is 100. Also, the “Plant response rating, Sedge, Umbrella” value in [14] was determined as 100. The “Plant response rating, Barnyardgrass” value in test [15] worked out at 20. Further, the “Plant response rating, Rice” value in the test on rice (Oryza sativa) was determined as 0.
